From publication PMC6627609, “Targeting Quorum Sensing: High-Throughput Screening to Identify Novel LsrK Inhibitors” (International Journal of Molecular Sciences, 2019) come the findings set out here.

Structures can show the parent of a compound that is named as a salt.

The target in one assay is LsrK (Salmonella typhimurium, UniProt Q8ZKQ6). Briefly: biochemical. The format is biochemical, S. typhimurium.
LsrK, sequence (Q8ZKQ6 whole entry): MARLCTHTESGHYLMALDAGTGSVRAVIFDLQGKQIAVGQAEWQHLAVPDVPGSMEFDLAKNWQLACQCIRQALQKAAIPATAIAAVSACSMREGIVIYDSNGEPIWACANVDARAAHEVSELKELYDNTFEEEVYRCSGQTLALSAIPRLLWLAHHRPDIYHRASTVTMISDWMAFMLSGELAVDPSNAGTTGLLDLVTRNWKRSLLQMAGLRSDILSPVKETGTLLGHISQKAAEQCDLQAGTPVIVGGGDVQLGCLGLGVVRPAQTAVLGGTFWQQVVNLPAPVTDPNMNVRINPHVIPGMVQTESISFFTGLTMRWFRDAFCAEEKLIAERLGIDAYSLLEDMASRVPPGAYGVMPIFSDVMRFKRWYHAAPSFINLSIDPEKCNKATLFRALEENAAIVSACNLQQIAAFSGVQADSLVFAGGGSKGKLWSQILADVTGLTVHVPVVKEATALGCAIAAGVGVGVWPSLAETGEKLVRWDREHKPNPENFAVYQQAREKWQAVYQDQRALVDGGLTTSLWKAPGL
Conditions: not given
For `CNC(=C[N+](=O)[O-])NCCSCc1ccc(CN(C)C)o1` [RANITIDINE], the inhibition (usually the relative decrease from the control value, in per cent) at 50 µM was found to be 1%. On the same count and under the same terms, as for `CC(C)/N=c1\cc2n(-c3ccc(Cl)cc3)c3ccccc3nc-2cc1Nc1ccc(Cl)cc1` [CLOFAZIMINE], the figure is 0%; as for `COC(=O)C[C@H]1C(C)(C)[C@@H](O)[C@@H]2CC3=C4C=C(OC)O[C@@H](c5ccoc5)[C@]4(C)CCC3[C@@]1(C)C2=O` (stereo partly drawn) [3-DEOXO-3beta-HYDROXYMEXICANOLIDE 16-ENOL ETHER], 2%; as for `CC(=O)O[C@H]1C[C@@H](O)C(C)(C)[C@@H]2C[C@@H](OC(C)=O)[C@]3(C)[C@H](CC[C@@]4(C)[C@@H](c5ccoc5)OC(=O)[C@H]5O[C@@]534)[C@@]12C` [3-DEACETYLKHIVORIN], 99%. Consider `CCC(C)(C)C(=O)O[C@H]1C[C@@H](C)C=C2C=C[C@H](C)[C@H](CC[C@@H]3C[C@@H](O)CC(=O)O3)[C@H]21` [SIMVASTATIN], for which the inhibition at 50 µM amounted to 3%. Same read-out and setting: next, `O=c1c2ccccc2oc2ccccc12` [XANTHONE]: 1%; `CC(C)NNC(=O)c1ccncc1` [[…]]: 0%; `C1N2CN3CN1CN(C2)C3` [METHENAMINE]: 2%. On the same count and under the same terms, next, `COc1ccc(C[C@H](N)C(=O)N[C@H]2[C@@H](O)[C@H](n3cnc4c(N(C)C)ncnc43)O[C@@H]2CO)cc1` [PUROMYCIN HYDROCHLORIDE]: 0%. Still for that read-out and setting: next, `C[n+]1cc2c3c(ccc2c2ccc4cc5c(cc4c21)OCO5)OCO3` [SANGUINARINE SULFATE]: 84%; `CC[C@H]1OC(=O)[C@H](C)C(=O)[C@H](C)[C@@H](O[C@@H]2O[C@H](C)C[C@H](N(C)C)[C@H]2O)[C@](C)(OC)C[C@@H](C)C(=O)[C@H](C)[C@H]2N(CCCCn3cnc(-c4cccnc4)c3)C(=O)O[C@]12C` [TELITHROMYCIN]: 7%. In the case of `CC(=O)O[C@H]1C[C@@H]2CC[C@@H]3[C@H](CC[C@@]4(C)[C@H]3C[C@H]([N+]3(C)CCCCC3)[C@@H]4OC(C)=O)[C@@]2(C)C[C@@H]1N1CCCCC1` [VECURONIUM BROMIDE], the inhibition at 50 µM was 1%. Regarding `COc1cc2ccc(=O)oc2cc1O` [SCOPOLETIN], the inhibition at 50 µM was 1%.

In the case of `C[C@H]1C[C@H]2[C@@H]3CCC4=CC(=O)C=C[C@]4(C)[C@@]3(F)[C@@H](O)C[C@]2(C)[C@@]1(O)C(=O)CO` [BETAMETHASONE], the inhibition at 50 µM amounted to 1%. With `CC(=O)O[C@H]1CC[C@]2(C)C(C[C@@H](OC(C)=O)[C@]3(C)C4=CC(=O)O[C@H](c5ccoc5)[C@@]4(C)CCC23)C1(C)C` (stereo partly drawn) [3-DEOXO-3beta-ACETOXYDEOXYDIHYDROGEDUNIN], the inhibition at 50 µM turned out to be 5%. For the compound `Nc1nc(N)c2nc(-c3ccccc3)c(N)nc2n1`, the inhibition at 50 µM was 0%. Still for that read-out and setting: as for `Nc1nc(F)nc2c1ncn2[C@@H]1O[C@H](COP(=O)(O)O)[C@@H](O)[C@@H]1O` [FLUDARABINE PHOSPHATE], the figure is 0%; as for `CN(C)CCN(Cc1ccccc1)c1ccccn1` [TRIPELENNAMINE CITRATE], 2%; as for `CCOP(=S)(OCC)Oc1nc(Cl)c(Cl)cc1Cl` [CHLORPYRIFOS], 0%. Consider `C[C@H]1[C@H](C)CC[C@]2(C(=O)O)CC[C@]3(C)C(=CC[C@@H]4[C@@]5(C)C[C@@H](O)[C@H](O)[C@@](C)(CO)[C@@H]5CC[C@]43C)[C@H]12` [ASIATIC ACID], for which the inhibition at 50 µM was 2%. Same read-out and setting: as for `C=C(CC)C(=O)c1ccc(OCC(=O)O)c(Cl)c1Cl` [ETHACRYNIC ACID], the figure is 85%. Turning to `Cc1cc(O)c(C=O)c(O)c1C(=O)O` [H[…]], the inhibition at 50 µM came out at 1%. For the compound `CCCSc1ccc2nc(NC(=O)OC)[nH]c2c1` [ALBENDAZOLE], the inhibition at 50 µM amounted to 4%. With `COC(=O)[C@H](c1ccccc1Cl)N1CCc2sccc2C1` [CLOPIDOGREL SULFATE], the inhibition at 50 µM turned out to be 11%. `CS(=O)(=O)c1ccc([C@@H](O)[C@@H](CF)NC(=O)C(Cl)Cl)cc1` [FLORFENICOL]: the inhibition at 50 µM was 2%. Same read-out and setting: as for `Cc1cc(O)c2c(c1)C(=O)c1cccc(O)c1C2=O` [CHRYSOPHANOL], the figure is 1%. In the case of `Cc1cnc(C(=O)NCCc2ccc(S(=O)(=O)NC(=O)NC3CCCCC3)cc2)cn1` [GLIPIZIDE], the inhibition at 50 µM was determined as 1%. For the compound `Oc1c(Cl)cc(Cl)c2cccnc12` [CHLOROXINE], the inhibition at 50 µM stood at 13%. Same read-out and setting: next, `CC[C@@]1(O)C(=O)OCc2c1cc1n(c2=O)Cc2cc3c(CN(C)C)c(O)ccc3nc2-1` [TOPOTECAN HYDROCHLORIDE]: 0%; `N#Cc1ccc2c(c1)N(CCCN1CCC(O)CC1)c1ccccc1S2` [PERICIAZINE]: 4%; `CN(C)CCCN1c2ccccc2Sc2ccc(C(F)(F)F)cc21` [TRIFLUPROMAZINE HYDROCHLORIDE]: 122%. The same measure, in the same setting: as for `O=c1c2cc(O)c(O)cc2oc2cc(O)c([C@@H]3O[C@H](CO)[C@@H](O)[C@H](O)[C@H]3O)c(O)c12` [MANGIFERIN], the figure is 14%. For the compound `CCN(CCCc1ccccc1)CCCc1ccccc1` [ALVERINE CITRATE], the inhibition at 50 µM came to 1%. Still for that read-out and setting: next, `CC1=C(/C=C/C(C)=C/C=C/C(C)=C/C=C/C=C(C)/C=C/C=C(C)/C=C/C(=O)[C@]2(C)C[C@@H](O)CC2(C)C)C(C)(C)C[C@H](O)C1` [CAPSANTHIN]: 1%. As to `COc1ccc(-c2cc(C(F)F)nn2-c2ccc(S(N)(=O)=O)cc2)cc1F` [DERACOXIB], the inhibition at 50 µM is 2%. Still for that read-out and setting: as for `COc1ccc(C2CNC(=O)C2)cc1OC1CCCC1` (centres unmarked) [ROLIPRAM], the figure is 1%; as for `O=c1c(O)c(-c2ccc(O)c(O)c2)oc2cc(O)ccc12` [FISETIN], 33%. In the case of `CCCNC(=O)NS(=O)(=O)c1ccc(Cl)cc1` [CHLORPROPAMIDE], the inhibition at 50 µM is 1%. Same read-out and setting: next, `NS(=O)(=O)c1cc2c(cc1C(F)(F)F)NC(Cc1ccccc1)NS2(=O)=O` (centres unmarked) [BENDROFLUMETHIAZIDE]: 0%.

`CCc1oc2ccccc2c1C(=O)c1cc(Br)c(O)c(Br)c1` [BENZBROMARONE]: the inhibition at 50 µM is 106%.

`CC(=O)OCC1=C(C(=O)O)N2C(=O)[C@@H](NC(=O)Cc3cccs3)[C@H]2SC1` [CEPHALOTHIN SODIUM]: the inhibition at 50 µM was 1%. Turning to `CCCCOC(=O)c1ccccc1C(=O)OCCCC` [DIBUTYL PHTHALATE], the inhibition at 50 µM amounted to 0%. Regarding `C[C@@]12C(=O)OC(=O)[C@]1(C)[C@H]1CC[C@@H]2O1` [CANTHARIDIN], the inhibition at 50 µM was 4%.

Turning to `CC[C@H](c1ccc(O)cc1)[C@@H](CC)c1ccc(O)cc1` [HEXESTROL], the inhibition at 50 µM came to 3%. As to `CC(=O)O[C@H]1C(=O)[C@@]2(C)[C@H]([C@H](OC(=O)c3ccccc3)[C@]3(O)C[C@H](O)C(C)=C1C3(C)C)[C@]1(OC(C)=O)CO[C@@H]1C[C@@H]2O` [BACCATIN III], the inhibition at 50 µM amounted to 9%. Still for that read-out and setting: next, `CC(C)(CO)[C@@H](O)C(=O)NCCC(=O)NCCSSCCNC(=O)CCNC(=O)[C@H](O)C(C)(C)CO` [PANTETHINE]: 0%; `CCN1CCCC1CNC(=O)c1cc(S(N)(=O)=O)ccc1OC` (centres unmarked) [SULPIRIDE]: 83%. Same read-out and setting: as for `CC1COc2c(N3CCN(C)CC3)c(F)cc3c(=O)c(C(=O)O)cn1c23` (centres unmarked) [OFLOXACIN], the figure is 4%; as for `CC1(C)C(C=C(Cl)Cl)C1C(=O)OC(C#N)c1cccc(Oc2ccccc2)c1` (centres unmarked) [CYPERMETHRIN], 3%; as for `C/C=C/c1ccc2c(c1)OCO2` [ISOSAFROLE], 1%. Consider `CCCOc1ccc2nc(NC(=O)OC)[nH]c2c1` [OXIBENDAZOLE], for which the inhibition at 50 µM was 2%. Consider `CC(=O)OCC(=O)[C@@]1(O)CC[C@H]2[C@@H]3CCC4=CC(=O)CC[C@]4(C)[C@@]3(F)[C@@H](O)C[C@@]21C` [FLUDROCORTISONE ACETATE], for which the inhibition at 50 µM stood at 2%.

As for `CCCCN1CCCCC1C(=O)Nc1c(C)cccc1C` (centres unmarked) [BUPIVACAINE HYDROCHLORIDE], the inhibition at 50 µM was 2%. As for `O=C(Oc1cccc2cccnc12)c1ccccc1` [BENZOXIQUINE], the inhibition at 50 µM turned out to be 0%. On the same count and under the same terms, next, `NCC(O)c1ccc(O)cc1` (centres unmarked) [OCTOPAMINE HYDROCHLORIDE]: 2%; `COc1cc(C)c(C(=O)Oc2cc(C)c(C(=O)O)c(O)c2C)c(OC)c1C` [D[…]]: 35%.

Still in this assay, the particulars now being: 50 µM.
Consider `CC(=O)O[C@H]1CC[C@@]2(C)C(=CC=C3[C@@H]4CC[C@H]([C@H](C)/C=C/[C@H](C)C(C)C)[C@@]4(C)CC[C@@H]32)C1` [ERGOSTEROL ACETATE], for which the “Inhibition (%)” value came to 2. Regarding `CC[C@H](C=C[C@@H](C)[C@H]1CC[C@H]2[C@@H]3CCC4=CC(=O)CC[C@]4(C)[C@H]3CC[C@]12C)C(C)C`, the “Inhibition (%)” value is reported as 1. Take `COC1=CC(=O)C=C(OC)C1=O` [2.6-DIMETHOXYQUINONE]: the “Inhibition (%)” value was 50. With `O=c1ccn([C@@H]2O[C@H](COP(=O)([O-])OP(=O)([O-])OP(=O)([O-])O)[C@@H](O)[C@H]2O)c(=O)[nH]1.[Na+].[Na+].[Na+]` [URIDINE TRIPHOSPHATE TRISODIUM], the “Inhibition (%)” value amounted to 1. For `CC1=CC(=O)[C@H]2C(C)(C)CCC[C@]2(C)[C@@]1(O)CCc1ccoc1` [SOLIDAGENONE], the “Inhibition (%)” value is reported as 0. On the same count and under the same terms, next, “3-BROMO-4-METHYL-3.4-HEXAMETHYLENE-3.4-DIHYDRODIAZETE-1.2-DIOXIDE”: 1; `O=c1c(O)c(-c2ccccc2)oc2cc(O)ccc12` [3.7-DIHYDROXYFLAVONE]: 0. On to `CC(=O)OCC(OC(C)=O)C(OC(C)=O)C(OC(C)=O)C(OC(C)=O)C(COC(C)=O)OC(C)=O` (centres unmarked) [PERSITOL HEPTAACETATE], for which the “Inhibition (%)” value came to 3.

On to “MANGANESE TETRAKIS(4-CARBOXYPHENYL)PORPHYRIN CHLORDE”, for which the “Inhibition (%)” value worked out at 1.

Consider `CC(=O)O[C@@H]1C[C@H]2C(C)(C)C(=O)C=C[C@]2(C)[C@H]2CC[C@]3(C)C(=CC(=O)O[C@H]3c3ccoc3)[C@@]21C` [DEOXYGEDUNIN], for which the “Inhibition (%)” value was 0.

For the compound `OC[C@H]1O[C@H]([S-])[C@H](O)[C@@H](O)[C@@H]1O.[Au+]` [AUROTHIOGLUCOSE], the “Inhibition (%)” value amounted to 104.

On to `COc1cc(O)c(C(C)=O)c(O)c1` [4-O-METHYLPHLORACETOPHENONE], for which the “Inhibition (%)” value was found to be 2.
